Several values for one entry are separate records, joined by “and”; a condition that tells them apart may be missing. Identical values can stand only once.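 Five concentrations, 48 hours, 96-well plates. Abbreviation: GI50, concentration required for 50% inhibition of growth. TGI marks complete inhibition of growth.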 A value given as a limit tells only on which side of the number the result lay.

Test systems include HCT-116 colon; IGROV1 ovarian; NCI-H522 lung; OVCAR-3 ovarian; SF-539 CNS; SK-MEL-5 melanoma; SN12C renal; SNB-19 CNS; SNB-75 CNS; SR leukemia.
Holding throughout (assay): growth of human tumour cells (NCI), 48 h

Regarding `CC(C)C[C@H](NC(=O)[C@H](CCc1ccccc1)NC(=O)CN1CCOCC1)C(=O)N[C@@H](Cc1ccccc1)C(=O)N[C@@H](CC(C)C)C(=O)[C@@]1(C)CO1`, the GI50 in the experiment with HCT-116 colon is below 0.01 µM; in the experiment on IGROV1 ovarian, 0.0324 µM; with NCI-H522 lung, below 0.01 µM; in the experiment on OVCAR-3 ovarian, below 0.01 µM; with SF-539 CNS, below 0.0133 µM; in the experiment with SK-MEL-5 melanoma, below 0.0136 µM. Besides, the GI50 is below 0.0132 µM in the experiment on SN12C renal, below 0.0164 µM with SNB-19 CNS, 0.018 µM with SNB-75 CNS and 0.0149 µM in the experiment with SR leukemia. Moreover, the TGI in the experiment with HCT-116 colon is below 0.0125 µM; in the experiment on NCI-H522 lung, 0.0239 µM; with OVCAR-3 ovarian, 0.0172 µM; in the experiment on SF-539 CNS it was 0.0367 µM; with SK-MEL-5 melanoma, 0.0434 µM; in the experiment with SN12C renal, 0.0349 µM. In addition, the TGI in the experiment with SNB-19 CNS was above 100 µM; in the experiment with SNB-75 CNS, 0.0509 µM; in the experiment on SR leukemia, above 100 µM.
With `N/C(=N\NS(=O)(=O)c1ccccc1)Oc1ccc(Cl)cc1`, the TGI in the experiment with HCT-116 colon, with IGROV1 ovarian, in the experiment with NCI-H522 lung, in the experiment on OVCAR-3 ovarian, in the experiment with SF-539 CNS and in the experiment with SK-MEL-5 melanoma was above 100 µM in each case. The TGI in the experiment on SN12C renal, in the experiment on SNB-19 CNS, with SNB-75 CNS and in the experiment with SR leukemia was above 100 µM in each case.
For the molecule `C#CCN1C(=O)/C(=c2\sc3n(c2=O)C2C(NN=3)N(CC)C(=O)N2CC)c2ccccc21` (centres undefined), the GI50 in the experiment on HCT-116 colon is 0.376 µM; in the experiment with IGROV1 ovarian it was 0.589 µM; in the experiment with NCI-H522 lung it was 0.447 µM; in the experiment with OVCAR-3 ovarian it was 0.316 µM; with SF-539 CNS it was 0.295 µM; with SK-MEL-5 melanoma it was 0.529 µM. For the same molecule, the GI50 in the experiment on SN12C renal is 0.797 µM; with SNB-19 CNS it was 0.811 µM; in the experiment with SNB-75 CNS it was 0.25 µM; in the experiment with SR leukemia it was 0.344 µM. Also, the TGI in the experiment on HCT-116 colon was above 100 µM; in the experiment on IGROV1 ovarian it was above 91.1 µM; in the experiment on NCI-H522 lung, above 76 µM; in the experiment on OVCAR-3 ovarian, 1.69 µM; in the experiment on SF-539 CNS, 1.4 µM; in the experiment on SK-MEL-5 melanoma, above 85.9 µM. The TGI in the experiment on SN12C renal was above 100 µM; with SNB-19 CNS it was above 100 µM; with SNB-75 CNS it was 0.997 µM; with SR leukemia, above 100 µM.
For `NC(=O)CCC(NC(=O)OCc1ccccc1)C(=O)OCC(=O)c1ccccc1` (centres undefined), the GI50 in the experiment on HCT-116 colon, in the experiment on IGROV1 ovarian, with NCI-H522 lung, in the experiment on OVCAR-3 ovarian, with SF-539 CNS and with SK-MEL-5 melanoma was above 100 µM each time. In addition, the GI50 with SN12C renal, in the experiment with SNB-19 CNS, in the experiment with SNB-75 CNS and in the experiment on SR leukemia was above 100 µM in each case. Besides, the TGI in the experiment on HCT-116 colon, in the experiment with IGROV1 ovarian, with NCI-H522 lung, with OVCAR-3 ovarian, in the experiment on SF-539 CNS and in the experiment with SK-MEL-5 melanoma was above 100 µM throughout. Further, the TGI in the experiment on SN12C renal, with SNB-19 CNS, in the experiment on SNB-75 CNS and with SR leukemia was above 100 µM each time.
As for `Cn1c2c([N+](=O)[O-])[se]nc2c(=O)n1-c1ccc([N+](=O)[O-])cc1`, the TGI was determined as 3.39 µM in the experiment with HCT-116 colon; 2.59 µM in the experiment on IGROV1 ovarian; 2.94 µM with NCI-H522 lung; 3.12 µM with OVCAR-3 ovarian; 4.49 µM in the experiment on SF-539 CNS; 14.6 µM with SK-MEL-5 melanoma. The TGI is 3.46 µM in the experiment with SN12C renal, 18.4 µM in the experiment with SNB-19 CNS, 7.63 µM in the experiment with SNB-75 CNS and 0.271 µM with SR leukemia.
Turning to `CCCCCCCCCCCC(=O)OCC1OC(n2cc(F)c(=O)[nH]c2=O)C(NC(=O)OCc2ccccc2)C(O)C1O` (centres undefined), the TGI in the experiment with HCT-116 colon is 30.3 µM; in the experiment on IGROV1 ovarian, above 100 µM; in the experiment on NCI-H522 lung, 30.8 µM; with OVCAR-3 ovarian it was 68.4 µM; in the experiment on SF-539 CNS, 49.4 µM; with SK-MEL-5 melanoma, 34.6 µM. For the same molecule, the TGI was determined as 34.7 µM in the experiment with SN12C renal, 75.5 µM with SNB-19 CNS, 28.1 µM in the experiment with SNB-75 CNS and 41.2 µM in the experiment with SR leukemia.
For `C/C1=C\[C@H](C)C[C@H](C)OC(=O)C[C@H](c2ccc(O)cc2)NC(=O)[C@@H](Cc2c(Br)[nH]c3ccccc23)N(C)C(=O)[C@H](C)NC(=O)[C@@H](C)C1`, the GI50 was 0.0329 µM in the experiment on HCT-116 colon; 0.023 µM in the experiment on IGROV1 ovarian; 0.0344 µM in the experiment with NCI-H522 lung; 0.0393 µM with OVCAR-3 ovarian; 0.238 µM with SF-539 CNS; 0.0451 µM in the experiment with SK-MEL-5 melanoma. Moreover, the GI50 in the experiment with SN12C renal was 0.0738 µM; in the experiment on SNB-19 CNS it was 0.0232 µM; in the experiment with SNB-75 CNS, 0.0168 µM; in the experiment on SR leukemia it was 0.587 µM. Further, the TGI is 0.705 µM and 5.15 µM in the experiment with HCT-116 colon; 0.265 µM and 0.0602 µM in the experiment on IGROV1 ovarian; 0.908 µM and 1.13 µM with NCI-H522 lung; 0.323 µM and 0.255 µM with OVCAR-3 ovarian; 0.622 µM and 0.0655 µM in the experiment on SF-539 CNS; 0.578 µM and 0.391 µM with SK-MEL-5 melanoma. Moreover, the TGI in the experiment with SN12C renal was above 45.9 µM; in the experiment with SNB-19 CNS, 0.0568 µM; with SNB-75 CNS, 0.175 µM and 0.0335 µM; in the experiment on SR leukemia, 4.21 µM.
As to `Cn1nc(C(F)(F)F)c(-c2ccc(Cl)c(C(F)(F)F)c2)c1-c1ccc(OCc2ccc(Cl)cc2)cc1O`, the GI50 was 1.5 µM with HCT-116 colon; 2.18 µM in the experiment on IGROV1 ovarian; 1.47 µM with NCI-H522 lung; 1.66 µM in the experiment on OVCAR-3 ovarian; 1.65 µM in the experiment with SF-539 CNS; 1.02 µM with SK-MEL-5 melanoma. For the same molecule, the GI50 was 1.65 µM in the experiment on SN12C renal, 2.03 µM with SNB-19 CNS, 1.45 µM in the experiment with SNB-75 CNS and 2.06 µM with SR leukemia. Moreover, the TGI in the experiment on HCT-116 colon was 5.46 µM; in the experiment on IGROV1 ovarian, 8.47 µM; with NCI-H522 lung it was 5.64 µM; in the experiment on OVCAR-3 ovarian it was 5.8 µM; in the experiment on SF-539 CNS, 5.95 µM; in the experiment on SK-MEL-5 melanoma, 2.23 µM. In addition, the TGI was 5.92 µM in the experiment on SN12C renal, 8.17 µM in the experiment with SNB-19 CNS, 7.54 µM in the experiment on SNB-75 CNS and 7.34 µM in the experiment with SR leukemia.
With `S=c1nc[nH]c2c1ncn2Cc1ccco1`, the TGI in the experiment with HCT-116 colon, in the experiment with IGROV1 ovarian, in the experiment on NCI-H522 lung, in the experiment with OVCAR-3 ovarian, in the experiment on SF-539 CNS and in the experiment on SK-MEL-5 melanoma was above 100 µM throughout. In addition, the TGI in the experiment with SN12C renal, with SNB-19 CNS, in the experiment on SNB-75 CNS and in the experiment on SR leukemia was above 100 µM in each case.
In the case of `O=C1NC(=O)/C(=C/C=C/c2ccccc2)S1`, the GI50 with HCT-116 colon is 2.36 µM; in the experiment with IGROV1 ovarian, 12.2 µM; in the experiment with NCI-H522 lung, 7.82 µM; in the experiment on OVCAR-3 ovarian it was 2.88 µM; with SF-539 CNS it was 0.384 µM; in the experiment with SK-MEL-5 melanoma, 2.58 µM. For the same molecule, the GI50 in the experiment with SN12C renal was 2.05 µM; in the experiment on SNB-19 CNS, 1.42 µM; in the experiment with SNB-75 CNS, 5.25 µM; with SR leukemia, 0.597 µM. The TGI in the experiment on HCT-116 colon came to 18.6 µM; in the experiment on IGROV1 ovarian, 57.5 µM; in the experiment with NCI-H522 lung it was 52.7 µM; with OVCAR-3 ovarian it was 33.1 µM; with SF-539 CNS it was 3.16 µM; in the experiment with SK-MEL-5 melanoma it was 22.5 µM. Also, the TGI with SN12C renal is above 100 µM; in the experiment with SNB-19 CNS, 20.3 µM; with SNB-75 CNS, 40.3 µM; with SR leukemia, above 86.5 µM.
As for `CC[C@@]1(O)C(=O)NCc2c1cc1n(c2=O)Cc2cc3ccccc3nc2-1`, the GI50 in the experiment with HCT-116 colon was 2.75 µM; in the experiment with IGROV1 ovarian, 12.1 µM; in the experiment on NCI-H522 lung, above 22.6 µM; in the experiment with OVCAR-3 ovarian, 34.4 µM; in the experiment with SF-539 CNS, 1.71 µM; in the experiment with SK-MEL-5 melanoma, 2.77 µM. Further, the GI50 was 2.03 µM in the experiment on SN12C renal, 1.92 µM with SNB-19 CNS, 4.22 µM in the experiment with SNB-75 CNS and 0.123 µM in the experiment on SR leukemia. The TGI in the experiment on HCT-116 colon is above 74.2 µM; with IGROV1 ovarian it was above 100 µM; with NCI-H522 lung, above 100 µM; in the experiment on OVCAR-3 ovarian, above 100 µM; in the experiment on SF-539 CNS, 11 µM; in the experiment on SK-MEL-5 melanoma it was 18.7 µM. In addition, the TGI is above 32.6 µM in the experiment on SN12C renal, above 100 µM with SNB-19 CNS, above 28.5 µM with SNB-75 CNS and 0.503 µM in the experiment on SR leukemia.
As to `C=C1CCC2C3(C)COC(c4ccc(NC(C)=O)cc4)OC3CCC2(C)C1C/C=C1/C(=O)OCC1O` (centres undefined), the GI50 in the experiment on HCT-116 colon is 4.7 µM; in the experiment on IGROV1 ovarian, above 100 µM; in the experiment with NCI-H522 lung, 4.53 µM; in the experiment with OVCAR-3 ovarian it was above 100 µM; with SF-539 CNS it was above 100 µM; in the experiment on SK-MEL-5 melanoma, 3.57 µM. Further, the GI50 in the experiment on SN12C renal is above 100 µM; with SNB-19 CNS it was above 100 µM; with SNB-75 CNS it was above 100 µM; in the experiment with SR leukemia it was 2.33 µM. Moreover, the TGI in the experiment with HCT-116 colon, with IGROV1 ovarian, in the experiment with NCI-H522 lung, with OVCAR-3 ovarian, with SF-539 CNS and in the experiment with SK-MEL-5 melanoma was above 100 µM throughout. The TGI in the experiment with SN12C renal is above 100 µM; in the experiment on SNB-19 CNS, above 100 µM; in the experiment with SNB-75 CNS, above 100 µM; in the experiment on SR leukemia, 85.1 µM.
As for `Cc1cccc(NC(=O)C(=O)C2C(=O)NC(=O)NC2=O)c1C`, the TGI with HCT-116 colon, in the experiment with IGROV1 ovarian, with NCI-H522 lung, in the experiment on OVCAR-3 ovarian, in the experiment on SF-539 CNS and in the experiment on SK-MEL-5 melanoma was above 100 µM each time. Moreover, the TGI in the experiment with SN12C renal, in the experiment with SNB-19 CNS, in the experiment on SNB-75 CNS and in the experiment on SR leukemia was above 100 µM each time.

The values above are taken from PubChem BioAssay (NCI).
